Series [1] has as its system virus isolate from an eye IDU treated with without result. In words: VSA on a virus isolate from an eye treated with IDU without result (Example 3). In kind it is cell-based. As to the method:
Sterile plastic plates comprising 24 wells, each having a culture surface of 2.5 cm^2 and containing about 5 x 10^5 HL-cells/well were inoculated with 0.1 ml of virus dilutions as above. Such of the above virus dilutions only containing a small amount of virus are first cultured for 3 days in HL-cells, on which virus replicates, after which the virus isolate from one cell passage is taken out, is diluted 1:30 and 0.1 ml of the dilutions is added to the plates as indicated above. The cells are then incubated at a temperature of 32-37°C, with addition of different antiviral agents, and without any addition of antiviral agent to obtain reference values. Each antiviral agent is added in a dilution series comprising six different concentrations (Cl-C6), some of which correspond to desired serum concentrations for the treatment of patients. In table 1 is indicated the antiviral agents and concentrations thereof used.
The supernatant is sucked off and in order to achieve cell disrupture 800 µl of distilled water are added to the cells on the plates. The plates are frozen at -20°C and after some time sufficient for formation of ice crystals (about 15 min) the plates are thawed to room temperature for measurement of virus antigen. If desired, the plates can be preserved in a frozen state for a long time before they are thawed in order to carry out the measurement of virus antigen. When the plates have thawed 200 µl of NaCI of 4.5% are added to the cells in order to obtain an isotonic solution.
The amount of virus antigen formed is thereafter determined as follows. Guinea pig anti-HSV-serum is diluted in 0.1-M sodium carbonate buffer. 0.1 ml of the serum dilution is filled per well in microplates (M 29 AR, Dynatech, Zug, Switzerland) which have been washed three times with NaCI-solution of 0.9% containing 0.05% of Tween® 20, after which the plates are incubated for 16 hours at room temperature. The plates can be preserved sealed with their contents at +4°C up to 2-3 months.
0.1 ml of the cell material obtained above or a known virus antigen is filled into plates treated with antibody and is incubated for 4 hours at +4°C. After washing with the washing solution indicated above 0.1 ml of rabbit anti-HSV is added and the plates are incubated for 2 hours at +37°C. The plates are washed and 0.1 ml of conjugate is added, after which they are incubated for 2 hours at +37°C. The conjugate consists of pig anti-rabbit IgG conjugated with alkaline phosphatase (Orion Diagnostica, Helsinki, Finland) in a dilution of 1:100. Non-bonded conjugate is washed off before 100 pl of the substrate p-nitrophenyl phosphate (1 mg/ml, Sigma, St Louis, MO, USA) are added. For dilution of the substrate 1 M diethanol buffer, pH 9.8 containing 0.5 x 10-^3 M MgC12 is used and for dilution of antisera and conjugate phosphate buffer (PBS), pH 7.3-7.4 with 0.5% of Tween® 20, 0.5% of BSA (bovine serum albumin) and 0.02% of NaN3 is used. The reaction is stopped after 20-60 min with 0.025 ml of 5 M NaOH. The absorbance (A) is thereafter read at 405 nm with Titertek Multiskan® (Flow Laboratories, Irvine, Scotland).

The conditions of series [2]: concentrations are measured in lachrymal fluid; cited from earlier work.
[3] abbreviates: C1: Ara-A 5, ACV 0.15, PFA 25, IDU 0.5 μM, C0 (no agent) 1.605.
Setting [4] is: C2: Ara-A 10, ACV 0.31, PFA 50, IDU 1 μM, C0 1.605.
[5] abbreviates: C3: Ara-A 20, ACV 0.63, PFA 100, IDU 2 μM, C0 1.605.
Where [6] appears, read: C4: Ara-A 40, ACV 1.25, PFA 200, IDU 4 μM, C0 1.605.
Where [7] appears, read: C5: Ara-A 80, ACV 2.5, PFA 400, IDU 8 μM, C0 1.605.
Where [8] appears, read: C6: Ara-A 160, ACV 5, PFA 800, IDU 16 μM, C0 1.605.

As for `Nc1ncnc2c1ncn2C1OC(CO)C(O)C1O` (stereo not shown) [Ara-A, adenosine-arabinoside], the adsorbance values in series [1] (setting [3]) was determined as 1.572; in series [1] (setting [4]) it was 1.482; in series [1] (setting [5]) it was 0.750; in series [1] (setting [6]) it was 0.155; in series [1] (setting [7]), 0.071; in series [1] (setting [8]) it was 0.039.
Consider `O=c1[nH]c(=O)n([C@H]2C[C@H](O)[C@@H](CO)O2)cc1I` [IDU, iododeoxyuridine], for which the adsorbance values in series [1] (setting [3]) worked out at 1.207; in series [1] (setting [4]), 1.165; in series [1] (setting [5]) it was 0.951; in series [1] (setting [6]) it was 0.739; in series [1] (setting [7]) it was 0.706; in series [1] (setting [8]), 0.502. Further, the “Serum concentrations used clinically” value in series [2] is recorded as 4—400^1 μM or IU/ml.

These data come from patent EP0097633B1, “Determination of the sensitivity of virus to antiviral agents” (Wahren, Britta, priority 1982, dated 1984).
